Measurements reported in patent US4000269A, “S-(α-substituted-arylmethylthio, -arylmethylsulfinyl, and -arylmethylsulfonyl)methyl phosphorus esters used as insecticides” (priority 1975, dated 1976).

What follows are compounds tested on Mexican Bean Beetle (Epilachna varivestis) (assay: F. Mexican Bean Beetle leaf-dip test). Conditions: 48 h, 10 ppm., 2 days, read-out: Percent Mortality, Mexican Bean Beetle.
Format: in vivo
Experimental: Compounds to be tested are made up as 100 or 10 ppm. solutions in 65 % acetone/35 % water. Sieva lima bean leaves are dipped in the test solution and set in the hood to dry. When dry, they are placed in 4 -inch petri dishes which have a moist filter paper in the bottom, and 10 third-instar bean beetles are added to each dish. The dishes are covered and held at 80° F., 60 % R.H. After 2 days, mortality counts and estimates of the amount of feeding are made. Compounds showing kills greater than 75 % are further tested at tenfold dilutions in 65 % acetone/35 % water.

| SMILES | mortality at 10 ppm |
| --- | --- |
| COP(=O)(SC)SCSC(C)(C)c1ccc(Cl)cc1 (centres unmarked) [drawing 23] | 0% |
| COP(=S)(OC)SCSC(C)(C)c1ccccc1 [drawing 13] | 80% |
| CCOP(=S)(OCC)SC[S+]([O-])C(C)(C)c1ccccc1 (centres unmarked) [drawing 8] | 40% |

Same assay, conditions: 48 h, 100 ppm., 2 days, read-out: Percent Mortality, Mexican Bean Beetle

| SMILES | mortality at 100 ppm |
| --- | --- |
| COP(=S)(OC)SCSC(C)(C)c1cccc(Cl)c1Cl [drawing 12] | 60% |
| COP(=O)(SC)SCSC(C)(C)c1ccc(Cl)cc1 (centres unmarked) [drawing 23] | 40% |
| COP(=S)(OC)SCSC(C)(C)c1ccccc1 [drawing 13] | 80% |
| CCOP(=S)(OCC)SC[S+]([O-])C(C)(C)c1ccccc1 (centres unmarked) [drawing 8] | 100% |

The compounds below were run on Tarnished Plant Bug (Lygus lineolaris) (assay: A. Tarnished Plant Bug leaf-dip test). Conditions: 48 h, 100 ppm., 2 days, read-out: Percent Mortality, Tarnished plant Bug.
Format: in vivo
Experimental: Test compounds are prepared as 1000 ppm. solutions in 10 % acetone, 0.2 % Alrodyne 315 , and 89.8 % water. A tenfold dilution is made with 65 % acetone and 35 % water. The primary leaves of Sieva lima bean plants are dipped for 3 to 5 seconds in the test solutions and placed in an exhaust hood to dry. When dry, each leaf is placed in a 4 -inch petri dish with a moist filter paper on the bottom. Ten adult Lygus bugs are aspirated from the stock culture and placed in the petri dish. The dishes are covered and held at 80° F. and 50 % R.H. After 2 days, mortality counts are made.

| SMILES | mortality at 100 ppm |
| --- | --- |
| CCOP(=S)(OCC)SCSC(C)(C)c1cccc(C)c1 [drawing 17] | 0% |
| COP(=O)(SC)SCSC(C)(C)c1ccc(Cl)cc1 (centres unmarked) [drawing 23] | 0% |
| COP(=S)(OC)SCSC(C)(C)c1ccccc1 [drawing 13] | 90% |
| CCOP(=S)(OCC)SC[S+]([O-])C(C)(C)c1ccccc1 (centres unmarked) [drawing 8] | 0% |

Same assay, conditions: 48 h, read-out: Percent Mortality, Tarnished plant Bug

| SMILES | mortality at 100 ppm |
| --- | --- |
| COP(=S)(OC)SCSC(C)(C)c1cccc(Cl)c1Cl [drawing 12] | 0% |

What follows are compounds tested on Western Potato Leafhopper (Empoasca abrupta) (assay: G. Western Potato Leafhopper plant-dip test). Conditions: 48 h, 10 ppm., 2 days, read-out: Percent Mortality, Western Potato Leafhopper.
Format: in vivo
Experimental: Sieva lima bean plants with the primary leaf expanded to 3 to 4 inches are dipped into 100 or 10 ppm. 50 % acetone/50 % water solutions and set in the hood to dry. A 1 -inch piece of the tip of a treated leaf is cut off and placed in a 4 -inch petri dish with a moist filter paper in the bottom. From 3 to 10 second-instar nymphs are tapped from the culture plants into the test dish and rapidly covered. Mortality counts are made after 2 days at 80° F., and 50 % R.H.

| SMILES | mortality at 10 ppm |
| --- | --- |
| COP(=O)(SC)SCSC(C)(C)c1ccc(Cl)cc1 (centres unmarked) [drawing 23] | 0% |
| COP(=S)(OC)SCSC(C)(C)c1ccccc1 [drawing 13] | 100% |
| CCOP(=S)(OCC)SC[S+]([O-])C(C)(C)c1ccccc1 (centres unmarked) [drawing 8] | 100% |

Same assay, conditions: 48 h, 100 ppm., 2 days, read-out: Percent Mortality, Western Potato Leafhopper

| SMILES | mortality at 100 ppm |
| --- | --- |
| CCOP(=S)(OCC)SCSC(C)(C)c1cccc(C)c1 [drawing 17] | 0% |
| COP(=S)(OC)SCSC(C)(C)c1cccc(Cl)c1Cl [drawing 12] | 100% |
| COP(=O)(SC)SCSC(C)(C)c1ccc(Cl)cc1 (centres unmarked) [drawing 23] | 100% |
| COP(=S)(OC)SCSC(C)(C)c1ccccc1 [drawing 13] | 100% |
| CCOP(=S)(OCC)SC[S+]([O-])C(C)(C)c1ccccc1 (centres unmarked) [drawing 8] | 100% |

These compounds were tested on Malaria Mosquito (Anopheles quadrimaculatus) (assay: H. Malaria Mosquito Adult Test). Conditions: 24 h, adults, 1 day, read-out: Percent Mortality, Malaria Mosquito.
Format: in vivo
Experimental: Solutions of 65% acetone/35% water containing 10 ppm. of test compound are poured into wide-mouth 2-ounce jars, each containing a microscope slide. The slides are removed from the test solution with forceps and laid horizontally to dry on a wide-mouth 4-ounce bottle. When dry, they are placed in the same 4-ounce bottle and 10 4- to 5-day-old mosquitoes of mixed sexes are added to each bottle. A piece of cotton gauze held on by an elastic band serves as a lid, and wad of cotton soaked in 10% honey solution serves as food. Mortality counts are made after 1 day at 80° F., 50% R.H. (relative humidity) Data obtained with the above procedures are reported in Table II below.

| SMILES | mortality at 10 ppm |
| --- | --- |
| CCOP(=S)(OCC)SCSC(C)(C)c1cccc(C)c1 [drawing 17] | 0% |
| COP(=S)(OC)SCSC(C)(C)c1cccc(Cl)c1Cl [drawing 12] | 90% |
| COP(=O)(SC)SCSC(C)(C)c1ccc(Cl)cc1 (centres unmarked) [drawing 23] | 0% |

What follows are compounds tested on Southern Armyworm (Prodenia eridania) (assay: D. Southern Armyworm leaf-dip test). Conditions: Spodoptera eridania, 48 h, read-out: Percent Mortality, Southern Armyworm.
Format: in vivo
Experimental: Compounds are tested at 1000 and 100 ppm. in solution or suspension in 65 % acetone/35 % water. Sieva lima bean primary leaves are dipped for 3 seconds in the test solution and set in a hood on a screen to dry. When dry, each leaf is placed in a 4 -inch petri dish which has a moist filter paper in the bottom and ten third-instar armyworm larvae about 3/8 inch long. The dishes are covered and held at 80° F., and 60 % R.H. After 2 days, mortality counts and estimates of the amount of feeding are made. Compounds showing partial kill and/or inhibition of feeding are held an extra day for further observations.

| SMILES | mortality at 1000 ppm |
| --- | --- |
| COP(=S)(OC)SCSC(C)(C)c1cccc(Cl)c1Cl [drawing 12] | 100% |

Same assay, conditions: Spodoptera eridania, 48 h; 100 ppm.; 2 days; read-out: Percent Mortality, Southern Armyworm

| SMILES | mortality at 100 ppm |
| --- | --- |
| CCOP(=S)(OCC)SCSC(C)(C)c1cccc(C)c1 [drawing 17] | 20% |
| COP(=S)(OC)SCSC(C)(C)c1cccc(Cl)c1Cl [drawing 12] | 0% |
| COP(=O)(SC)SCSC(C)(C)c1ccc(Cl)cc1 (centres unmarked) [drawing 23] | 0% |
| COP(=S)(OC)SCSC(C)(C)c1ccccc1 [drawing 13] | 100% |
| CCOP(=S)(OCC)SC[S+]([O-])C(C)(C)c1ccccc1 (centres unmarked) [drawing 8] | 80% |

Same assay, conditions: Spodoptera eridania, 48 h; 1000 ppm.; 2 days; read-out: Percent Mortality, Southern Armyworm

| SMILES | mortality at 1000 ppm |
| --- | --- |
| CCOP(=S)(OCC)SCSC(C)(C)c1cccc(C)c1 [drawing 17] | 100% |
| COP(=O)(SC)SCSC(C)(C)c1ccc(Cl)cc1 (centres unmarked) [drawing 23] | 100% |
| COP(=S)(OC)SCSC(C)(C)c1ccccc1 [drawing 13] | 100% |
| CCOP(=S)(OCC)SC[S+]([O-])C(C)(C)c1ccccc1 (centres unmarked) [drawing 8] | 100% |

Each compound was assayed on Bean Aphid (Aphis fabae) (assay: C. Bean Aphid spray test). Conditions: 48 h, 1 ppm., 2 days, read-out: Percent Mortality, Bean Aphid.
Format: in vivo
Experimental: Compounds are tested at 100 , 10 and 1 ppm. in solution or suspension in 65 % acetone/35 % water. Two-inch fiber pots each containing a nasturtium plant 2 inches high and infested with about 150 aphids 2 days earlier, are placed on a turntable (4 RPM) and sprayed for two revolutions with a No. 154 DeVilbiss Atomizer at 20 psi. air pressure. The spray tip is held about 6 inches from the plants, and the spray is directed so as to give complete coverage of the aphids and the plants. The sprayed plants are laid on their sides on white enamel trays. Mortality estimates are made after holding for 2 days at 70° F. and 50% R.H.

| SMILES | mortality at 1 ppm |
| --- | --- |
| CCOP(=S)(OCC)SCSC(C)(C)c1cccc(C)c1 [drawing 17] | 0% |
| COP(=O)(SC)SCSC(C)(C)c1ccc(Cl)cc1 (centres unmarked) [drawing 23] | 95% |
| COP(=S)(OC)SCSC(C)(C)c1ccccc1 [drawing 13] | 80% |
| CCOP(=S)(OCC)SC[S+]([O-])C(C)(C)c1ccccc1 (centres unmarked) [drawing 8] | 100% |

Same assay, conditions: 48 h, 10 ppm., 2 days, read-out: Percent Mortality, Bean Aphid

| SMILES | mortality at 10 ppm |
| --- | --- |
| CCOP(=S)(OCC)SCSC(C)(C)c1cccc(C)c1 [drawing 17] | 100% |
| COP(=O)(SC)SCSC(C)(C)c1ccc(Cl)cc1 (centres unmarked) [drawing 23] | 100% |
| COP(=S)(OC)SCSC(C)(C)c1ccccc1 [drawing 13] | 100% |
| CCOP(=S)(OCC)SC[S+]([O-])C(C)(C)c1ccccc1 (centres unmarked) [drawing 8] | 100% |

Same assay, conditions: 48 h, 100 ppm., 2 days, read-out: Percent Mortality, Bean Aphid

| SMILES | mortality at 100 ppm |
| --- | --- |
| CCOP(=S)(OCC)SCSC(C)(C)c1cccc(C)c1 [drawing 17] | 100% |
| COP(=O)(SC)SCSC(C)(C)c1ccc(Cl)cc1 (centres unmarked) [drawing 23] | 100% |
| COP(=S)(OC)SCSC(C)(C)c1ccccc1 [drawing 13] | 100% |
| CCOP(=S)(OCC)SC[S+]([O-])C(C)(C)c1ccccc1 (centres unmarked) [drawing 8] | 100% |

Same assay, conditions: 48 h, read-out: Percent Mortality, Bean Aphid

| SMILES | mortality at 1 ppm |
| --- | --- |
| COP(=S)(OC)SCSC(C)(C)c1cccc(Cl)c1Cl [drawing 12] | 75% |

These compounds were tested on Boll Weevil (Anthonomus grandis) (assay: B. Boll Weevil leaf-dip test). Conditions: 48 h, 100 ppm., 2 days, read-out: Percent Mortality, Boll Weevil.
Format: in vivo
Experimental: Test compounds are prepared as 1000 ppm. solutions in 10 % acetone, 0.2 % Alrodyne 315 , and 89.8 % water. A tenfold dilution is made with 65 % acetone and 35 % water. The first or second true leaf of young cotton plants is dipped for 3 to 5 seconds in the test solution and placed in an exhaust hood to dry. When dry, each leaf is placed in a 4 -inch petri dish with a moist filter paper on the bottom. Ten adult boll weevils are removed from the stock culture and placed in the petri dish. The dishes are covered and held at 80° F. and 50 % R.H. After 2 days, mortality counts are made.

| SMILES | mortality at 100 ppm |
| --- | --- |
| COP(=O)(SC)SCSC(C)(C)c1ccc(Cl)cc1 (centres unmarked) [drawing 23] | 90% |
| COP(=S)(OC)SCSC(C)(C)c1ccccc1 [drawing 13] | 100% |
| CCOP(=S)(OCC)SC[S+]([O-])C(C)(C)c1ccccc1 (centres unmarked) [drawing 8] | 100% |

Same assay, conditions: 48 h, read-out: Percent Mortality, Boll Weevil

| SMILES | mortality at 100 ppm |
| --- | --- |
| COP(=S)(OC)SCSC(C)(C)c1cccc(Cl)c1Cl [drawing 12] | 0% |

Each compound was assayed on Two-spotted Spider Mite (Tetranychus urticae) (assay: E. Two-spotted Spider Mite plant-dip test). Conditions: 48 h, 100 ppm., 2 days, read-out: Percent Mortality, Two-spotted Spider Mite.
Format: in vivo
Experimental: Sieva lima bean plants with primary leaves 3 to 4 inches long are infested with about 100 adult mites per leaf 4 hours before use in this test. The mite and egg infested plants are dipped for 3 seconds in the same solutions used in the aphid test, and the plants set in the hood to dry. They are held for 2 days at 80° F., 60% R.H., and the adult mite mortality estimated on one leaf under a steroscopic microscope. The other leaf is left on the plant an additional 5 days and then examined at 10 X power to estimate the kill of eggs and of newly hatched nymphs, giving a measure of ovicidal and residual action, respectively.

| SMILES | mortality at 100 ppm |
| --- | --- |
| COP(=S)(OC)SCSC(C)(C)c1cccc(Cl)c1Cl [drawing 12] | 0% |
| COP(=O)(SC)SCSC(C)(C)c1ccc(Cl)cc1 (centres unmarked) [drawing 23] | 0% |
| COP(=S)(OC)SCSC(C)(C)c1ccccc1 [drawing 13] | 100% |
| CCOP(=S)(OCC)SC[S+]([O-])C(C)(C)c1ccccc1 (centres unmarked) [drawing 8] | 100% |

Same assay, conditions: 48 h, read-out: Percent Mortality, Two-spotted Spider Mite

| SMILES | mortality at 300 ppm |
| --- | --- |
| CCOP(=S)(OCC)SCSC(C)(C)c1cccc(C)c1 [drawing 17] | 0% |
| COP(=S)(OC)SCSC(C)(C)c1cccc(Cl)c1Cl [drawing 12] | 0% |
| COP(=O)(SC)SCSC(C)(C)c1ccc(Cl)cc1 (centres unmarked) [drawing 23] | 50% |
| COP(=S)(OC)SCSC(C)(C)c1ccccc1 [drawing 13] | 100% |
| CCOP(=S)(OCC)SC[S+]([O-])C(C)(C)c1ccccc1 (centres unmarked) [drawing 8] | 100% |
